From patent publication US20250154212A1, “METHOD OF DISRUPTING MEMORY AND LIPOPEPTIDE FOR USE IN SUCH METHOD” (The Research Foundation for The State University of New York, priority 2023, published 2025)

Columns and labels:
Type in all cases: in vivo, mouse
[1] = tested on: contextual fear/threat memory in PKMζ-null mice; assay: Contextual fear/threat conditioning, infusion into dorsal hippocampus, PKMζ-null mice; details: 10 nmol in 0.5 μl per hemisphere in hippocampus, tested 24 h post-infusion
Protocol: (§1) Mice were 8-10 weeks old at the time of cannulation and 9-11 weeks at the beginning of behavioral experiments. Mice were housed with cage-mates in plastic cages and provided with food and water ad libitum. Mice were maintained on a 12 h light/dark cycle (lights on at 7:00 am) and behavioral experiments began at 9:00 am.
(§2) Mice were injected intraperitoneally (1 ml/100 g body weight) with an anesthetic cocktail containing ketamine (10 mg/ml) and xylazine (2 mg/ml). Mice were provided with analgesic treatment prior to surgery (carprofen; 5 mg/ml). Guide cannulae (Plastics One, Roanoke, VA) were implanted bilaterally in the dorsal hippocampus (from bregma: AP-2.1 mm; L+/−1.8 mm; DV-1.2 mm) and secured to the skull with three jeweler's screws and dental cement. Antisedan (0.66 ml/100 g body weight of 0.5 mg drug/ml solution) was given via i.p. injection after surgery to reverse the anesthesia.
(§3) For 7 days following surgery, mice were handled by freely exploring the experimenter's palm for 2-5 min. Mice were trained and tested in the same conditioning box (Coulbourn Habitest, Coulboum Instruments), which consisted of a grid floor and blank walls. […] Freezing behavior (cessation of all movement except breathing) during the 4 min session was recorded by an experimenter blind to the conditions. […]

[2] = tested on: contextual fear/threat memory; assay: Contextual fear/threat conditioning, infusion into dorsal hippocampus, wild-type mice; details: 10 nmol in 0.5 μl per hemisphere in hippocampus, tested 24 h post-infusion
Protocol: as §1, §2, §3

[3] = tested on: auditory-cued fear/threat memory in PKMζ-null mice; assay: Auditory-cued fear/threat conditioning, infusion into basolateral amygdala, PKMζ-null mice; details: 6 nmol in 0.3 μL into each BLA, tested 1 day post-injection
Protocol: Mice were 8-10 weeks old at the time of cannulation and 9-11 weeks old at the beginning of behavioral experiments. Mice were housed with cage-mates in plastic cages and provided with food and water ad libitum. Mice were maintained on a 12 h light/dark cycle (lights on at 7:00 am) and behavioral experiments began at 9:00 am.
Mice were injected intraperitoneally (1 ml/100 g body weight) with an anesthetic cocktail containing ketamine (10 mg/ml) and xylazine (2 mg/ml). Mice were provided with analgesic treatment prior to surgery (carprofen; 5 mg/ml). Guide cannulae (Plastics One, Roanoke, VA) were implanted bilaterally in the basolateral amygdala (from bregma: AP-1.7 mm; L+/−3.0 mm; DV-4.4 mm) and secured to the skull with three jeweler's screws and dental cement. Antisedan (0.66 ml/100 g body weight of 0.5 mg drug/ml solution) was given via i.p. injection after surgery to reverse the anesthesia.
For 7 days following surgery, mice were handled by freely exploring the experimenter's palm for 2-5 min. Mice were habituated, trained, and tested in the same conditioning box (Coulbourn Habitest, Coulboum Instruments) with differing floors and walls to produce two different contexts (Context A and Context B). […] Freezing behavior (cessation of all movement except breathing) during the tone on Test 1 and Test 2 was scored by an experimenter blind to the conditions. […]

**Q.** Which “contextual fear/threat memory (% time freezing)” value [1] does the source give for `O=S(=O)(O)c1cc(O)c2c(S(=O)(=O)O)cc(S(=O)(=O)O)cc2c1` [ζ-stat, 1-naphthol-3,6,8-trisulphonic acid] here?
**A.** Its value is “has no effect”.

**Q.** And the “contextual fear/threat memory (% time freezing)” value [2]?
**A.** The value was “has no effect”.

**Q.** And the “auditory-cued fear/threat memory retention (% time freezing to tone)” value [3]?
**A.** The value was “not in PKMζ-null mice”.
